In patent US11345669B2, “Urea derivatives and methods of use thereof” (NodThera Limited, priority 2017, dated 2022) one finds IC50 data, which are given here for 33 molecules.

This experiment relates to IL1-β release upon NLRP3 activation in peripheral blood mononuclear cells (PBMC). The experiment is described as follows: PBMC IC50 Determination Assay. The note with it: Homo sapiens; PBMC from buffy coats, LPS 3 h, compound 30 min, then ATP (5 mM) or nigericin (10 μM) for 1 h; IL-1β in media by ELISA; read-out: PBMCs, IC50. The experiment is classed as cell-based. Here is the method:
PBMC IC50 Determination Assay
The compounds of the present disclosure were tested for their inhibitory activity against IL1-β release upon NLRP3 activation in peripheral blood mononuclear cells (PBMC).
Isolated cells were seeded into the wells of a 96-well plate and incubated for 3 h with lipopolysaccharide (LPS). Following medium exchange, the compounds of the present disclosure were added (a single compound per well) and the cells were incubated for 30 min. Next, the cells were stimulated either with ATP (5 mM) or nigericin (10 μM) for 1 h and the cell culture media from the wells were collected for further analysis.
The release of IL-1β into the media was determined by a quantitative detection of IL-1β in 5 the media using an IL-1β enzyme-linked immunosorbent assay (ELISA) Ready-SET-Go!, eBioscience cat. […] Subsequently, plates were blocked with blocking buffer for 1 h at room temperature (rt) and after washing with a buffer (PBS with 0.05% Tween-20) incubated with protein standard and culture media. […] Plates were washed and incubated with HRP-streptavidin for 30 min at rt and washed again. The signal was developed after addition of 3,39,S,59-tetramethylbenzidine-peroxidase (TMB) until color appeared and the reaction was stopped by 2 M H2SO4. A microplate spectrophotometer (BioTek) was used to detect signals with 450 nm. The detection range of IL-1β ELISA was […].
As to `COC(=O)C(Cc1cccc(O)c1)NC(=O)Nc1c2c(cc3c1CCC3)CCC2` (stereo not drawn) [Example 2A, Methyl2-{[(1,2,3,5,6,7-hexahydro-s-indacen-4-yl)carbamoyl]amino}-3-(3-hydroxyphenyl)propanoate], the IC50 (as a rule, the concentration at which inhibition is half-maximal) turned out to be 2500 nM.

Regarding `CC(C)OC(=O)CNC(=O)Nc1c2c(cc3c1CCC3)CCC2` [Example 2AA, propan-2-yl 2-{[(1,2,3,5,6,7-hexahydro-s-indacen-4-yl)carbamoyl]amino}acetate], the IC50 worked out at 1800 nM.

On to `CCOC(=O)C(Cc1ccon1)NC(=O)Nc1c2c(cc3c1CCC3)CCC2` (stereo not drawn) [Example 2AB, Ethyl 2-{[(1,2,3,5,6,7-hexahydro-s-indacen-4-yl)carbamoyl]amino}-3-(1,2-oxazol-3-yl)propanoate], for which the IC50 amounted to 1800 nM.

With `CCOC(=O)C(Cc1ncco1)NC(=O)Nc1c2c(cc3c1CCC3)CCC2` (stereo not drawn) [Example 2AC, Ethyl 2-{[(1,2,3,5,6,7-hexahydro-s-indacen-4-yl)carbamoyl]amino}-3-(1,3-oxazol-2-yl)propanoate], the IC50 turned out to be 670 nM.

In the case of `CCOC(=O)[C@@H](Cc1cccnc1)NC(=O)Nc1cc2c(cc1C(C)C)CCC2` [Example 2AD, Ethyl (2R)-2-({[6-(propan-2-yl)-2,3-dihydro-1H-inden-5-yl]carbamoyl}amino)-3-(pyridin-3-yl)propanoate], the IC50 turned out to be 2900 nM.

With `COC(=O)[C@@H](Cc1cncnc1)NC(=O)Nc1c2c(cc3c1CCC3)CCC2` [Example 2AE, Methyl (2R)-2-{[(1,2,3,5,6,7-hexahydro-s-indacen-4-yl)carbamoyl]amino}-3-(pyrimidin-5-yl)propanoate], the IC50 stood at 4500 nM.

In the case of `COC(=O)[C@@H](Cc1cnccn1)NC(=O)Nc1c2c(cc3c1CCC3)CCC2` [Example 2AF, Methyl (2R)-2-{[(1,2,3,5,6,7-hexahydro-s-indacen-4-yl)carbamoyl]amino}-3-(pyrazin-2-yl)propanoate], the IC50 came to 460 nM.

For the molecule `CCOC(=O)C(Cc1ccnnc1)NC(=O)Nc1c2c(cc3c1CCC3)CCC2` (stereo not drawn) [Example 2AG, Ethyl 2-{[(1,2,3,5,6,7-hexahydro-s-indacen-4-yl)carbamoyl]amino}-3-(pyridazin-4-yl)propanoate], the IC50 stood at 6000 nM.

In the case of `CCOC(=O)C(Cc1ccncn1)NC(=O)Nc1c2c(cc3c1CCC3)CCC2` (stereo not drawn) [Example 2AI, ethyl 2-{[(1,2,3,5,6,7-hexahydro-s-indacen-4-yl)carbamoyl]amino}-3-(pyrimidin-4-yl)propanoate], the IC50 was determined as 6800 nM.

On to `O=C(Nc1c2c(cc3c1CCC3)CCC2)NC(Cc1ncccn1)C(=O)O` (stereo not drawn) [Example 2AJ, 2-{[(1,2,3,5,6,7-hexahydro-s-indacen-4-yl)carbamoyl]amino}-3-(pyrimidin-2-yl)propanoic acid], for which the IC50 worked out at 15000 nM.

Turning to `COC(=O)C(Cc1ccccc1O)NC(=O)Nc1c2c(cc3c1CCC3)CCC2` (stereo not drawn) [Example 2B, Methyl2-{[(1,2,3,5,6,7-hexahydro-s-indacen-4-yl)carbamoyl]amino}-3-(2-hydroxyphenyl)propanoate], the IC50 came out at 60 nM.

On to `COC(=O)[C@@H](CC(N)=O)NC(=O)Nc1c2c(cc3c1CCC3)CCC2` [Example 2BB, methyl(2R)-3-carbamoyl-2-{[(1,2,3,5,6,7-hexahydro-s-indacen-4yl)carbamoyl]amino}propanoate], for which the IC50 worked out at 32000 nM.

`COC(=O)C(Cc1cccc(C(C)=O)c1)NC(=O)Nc1c2c(cc3c1CCC3)CCC2` (stereo not drawn) [Example 2C, Methyl 3-(3-acetylphenyl)-2-{[(1,2,3,5,6,7-hexahydro-s-indacen-4-yl)carbamoyl]amino}propanoate]: the IC50 came out at 350 nM.

For `COC(=O)[C@@H](Cc1cccs1)NC(=O)Nc1c2c(cc3c1CCC3)CCC2` [Example 2CC, methyl (2R)-2-{[(1,2,3,5,6,7-hexahydro-s-indacen-4-yl)carbamoyl]amino}-3-(thiophen-2-yl)propanoate], the IC50 came out at 500 nM.

On to `COC(=O)[C@@H](Cc1ccc(C#N)cc1)NC(=O)Nc1c2c(cc3c1CCC3)CCC2` [Example 2D, Methyl (2R)-3-(4-cyanophenyl)-2-{[(1,2,3,5,6,7-hexahydro-s-indacen-4-yl)carbamoyl]amino}propanoate], for which the IC50 came to 1400 nM.

For `COC(=O)C(Cn1ccnc1)NC(=O)Nc1c2c(cc3c1CCC3)CCC2` (stereo not drawn) [Example 2DD, methyl 2-{[(1,2,3,5,6,7-hexahydro-s-indacen-4-yl)carbamoyl]amino}-3-(1H-imidazol-1-yl)propanoate], the IC50 came to 6200 nM.

Consider `COC(=O)[C@@H](Cc1cccc(C#N)c1)NC(=O)Nc1c2c(cc3c1CCC3)CCC2` [Example 2E, Methyl(2R)-3-(3-cyanophenyl)-2-{[(1,2,3,5,6,7-hexahydro-s-indacen-4-yl)carbamoyl]amino}propanoate], for which the IC50 came out at 1700 nM.

As to `COC(=O)CNC(=O)Nc1c2c(cc3c1CCC3)CCC2` [Example 2EE, methyl 2-{[(1,2,3,5,6,7-hexahydro-s-indacen-4-yl)carbamoyl]amino}acetate], the IC50 was 3700 nM.

As for `COC(=O)[C@@H](Cc1ccccn1)NC(=O)Nc1c2c(cc3c1CCC3)CCC2` [Example 2F, Methyl (2R)-2-{[(1,2,3,5,6,7-hexahydro-s-indacen-4-yl)carbamoyl]amino}-3-(pyridin-2-yl)propanoate], the IC50 was determined as 4200 nM.

Take `COC(=O)C(Cc1cccc(CO)c1)NC(=O)Nc1c2c(cc3c1CCC3)CCC2` (stereo not drawn) [Example 2G, Methyl2-{[(1,2,3,5,6,7-hexahydro-s-indacen-4-yl)carbamoyl]amino}-3-[3-(hydroxymethyl)phenyl]propanoate]: the IC50 turned out to be 1400 nM.

In the case of `COC(=O)[C@@H](Cc1cccnc1)NC(=O)Nc1c2c(cc3c1CCC3)CCC2` [Example 2H, Methyl (2R)-2-{[(1,2,3,5,6,7-hexahydro-s-indacen-4-yl)carbamoyl]amino}-3-(pyridin-3-yl)propanoate], the IC50 worked out at 880 nM.

For the molecule `COC(=O)[C@@H](Cc1cccc(N)c1)NC(=O)Nc1c2c(cc3c1CCC3)CCC2` [Example 2HH, methyl(2R)-3-(3-aminophenyl)-2-{[(1,2,3,5,6,7-hexahydro-s-indacen-4yl)carbamoyl]amino}propanoate], the 50% inhibitory concentration (IC50) came out at 4400 nM.

Turning to `COC(=O)C(Cc1cccc(-c2cncn2C)c1)NC(=O)Nc1c2c(cc3c1CCC3)CCC2` (stereo not drawn) [Example 2I, Methyl 2-{[(1,2,3,5,6,7-hexahydro-s-indacen-4-yl)carbamoyl]amino}-3-[3-(1-methyl-1H-imidazol-5-yl)phenyl]propanoate], the IC50 was 960 nM.

With `COC[C@@H](NC(=O)Nc1c2c(cc3c1CCC3)CCC2)C(=O)OC` [Example 2II, methyl(2R)-2-{[(1,2,3,5,6,7-hexahydro-s-indacen-4-yl)carbamoyl]amino}-3-methoxypropanoate], the IC50 was 5300 nM.

In the case of `COC(=O)C(Cc1cccc(-c2cc[nH]n2)c1)NC(=O)Nc1c2c(cc3c1CCC3)CCC2` (stereo not drawn) [Example 2J, Methyl 2-{[(1,2,3,5,6,7-hexahydro-s-indacen-4-yl)carbamoyl]amino}-3-[3-(1H-pyrazol-5-yl)phenyl]propanoate], the IC50 worked out at 410 nM.

As to `COC(=O)[C@@H](CO)NC(=O)Nc1c2c(cc3c1CCC3)CCC2` [Example 2JJ, methyl(2R)-2-{[(1,2,3,5,6,7-hexahydro-s-indacen-4-yl)carbamoyl]amino}-3-hydroxypropanoate], the IC50 turned out to be 26000 nM.

`COC(=O)[C@@H](Cc1cccc(O)c1)NC(=O)Nc1c2c(cc3c1CCC3)CCC2` [Example 2K, Methyl(2R)-2-{[(1,2,3,5,6,7-hexahydro-s-indacen-4-yl)carbamoyl]amino}-3-(3-hydroxyphenyl)propanoate]: the IC50 stood at 1300 nM.

`COC(=O)[C@@H](Cc1cccc(-c2cc[nH]n2)c1)NC(=O)Nc1c2c(cc3c1CCC3)CCC2` [Example 2L, Methyl (2R)-2-{[(1,2,3,5,6,7-hexahydro-s-indacen-4-yl)carbamoyl]amino}-3-[3-(1H-pyrazol-3-yl)phenyl]propanoate]: the IC50 was found to be 140 nM.

Take `O=C(Nc1c2c(cc3c1CCC3)CCC2)N[C@H](Cc1cccnc1)C(=O)O` [Example 2LL, (2R)-2-{[(1,2,3,5,6,7-hexahydro-s-indacen-4-yl)carbamoyl]amino}-3-(pyridin-3-yl)propanoic acid]: the IC50 stood at 2000 nM.

As for `COC(=O)[C@@H](Cc1cccc(CO)c1)NC(=O)Nc1c2c(cc3c1CCC3)CCC2` [Example 2M, Methyl(2R)-2-{[(1,2,3,5,6,7-hexahydro-s-indacen-4-yl)carbamoyl]amino}-3-[3-(hydroxymethyl)phenyl]propanoate], the IC50 came out at 380 nM.

As to `COCCOC(=O)[C@@H](Cc1cccnc1)NC(=O)Nc1c2c(cc3c1CCC3)CCC2` [Example 2MM, 2-methoxyethyl(2R)-2-{[(1,2,3,5,6,7-hexahydro-s-indacen-4-yl)carbamoyl]amino}-3-(pyridin-3-yl)propanoate], the IC50 came out at 2900 nM.

For `COC(=O)[C@@H](CN)NC(=O)Nc1c2c(cc3c1CCC3)CCC2` [Example 2N, Methyl(2R)-3-amino-2-{[(1,2,3,5,6,7-hexahydro-s-indacen-4-yl)carbamoyl]amino}propanoate], the IC50 was 9300 nM.

`O=C(Nc1c2c(cc3c1CCC3)CCC2)N[C@H](Cc1cccnc1)C(=O)OC1CCC1` [Example 2NN, cyclobutyl (2R)-2-{[(1,2,3,5,6,7-hexahydro-s-indacen-4-yl)carbamoyl]amino}-3-(pyridin-3-yl)propanoate]: the IC50 was found to be 600 nM.
